From patent US20180042918A1, “RESPIRATORY INFECTION TREATING AGENT” (KYORIN PHARMACEUTICAL CO., LTD., priority 2015, published 2018)
In brackets after ≈: the same amount, converted by molar mass. Where two headings read alike, the source gives them in different places.

What was measured:
S. pneumoniae GF9821 = assay: microbe, parasite or virus in culture; format: cell-based; settings: Streptococcus pneumoniae
S. pneumoniae IID553 = assay: microbe, parasite or virus in culture; format: cell-based; settings: Streptococcus pneumoniae
S. pneumoniae ATCC49619 = assay: Frequency of development of resistant bacteria; format: cell-based, Streptococcus pneumoniae; settings: for FREQUENCY OF DEVELOPMENT OF RESISTANT BACTERIA (AVERAGE OF TWO MEASURED VALUES): about 70 hours
Method: (§1) S. aureus ATCC29213 is Staphylococcus aureus, S. pneumoniae ATCC49619 is Streptococcus pneumoniae, and E. coli ATCC25922 is Escherichia coli. […]
(§2) The frequency of development of resistant bacteria was calculated by dividing the number of colonies developed on an agar medium having each drug concentration by the number of initially inoculated bacteria.

[1] = target: DNA gyrase derived from S. pneumoniae IID553 (Streptococcus pneumoniae serotype 4, UniProt P0A4L9+P72524); assay: Enzyme inhibitory activity, supercoiling of relaxed pBR322
S. pneumoniae KY-9 = assay: Number of bacteria in the lung, mouse lung infection; format: in vivo, Streptococcus pneumoniae
Method: S. pneumoniae KY-9 was inoculated at 7.4×10^5 CFU/mouse via the respiratory tract into the lung in a mouse in which cyclophosphamide had been administrated. 2.9 to 3.1 hours, 17.3 to 19.1 hours, and 24.4 to 26.1 hours after the inoculation, the drug (the compound D, levofloxacin, or garenoxacin) was subcutaneously administrated (SC) or orally administrated (PO) three times in total. The number of bacteria in the lung 16.5 to 17.0 hours after the final administration was measured.
“*” described in FIGS. 1 and 2 means that a significant difference of p<0.05 in a Vehicle group was observed, and “**” means that a significant difference of p<0.001 in the Vehicle group was observed (Dunnett's multiple comparison test, parametric).
Here, CFU is an abbreviation of Colony Forming Unit, and represents the unit of number of bacteria. Log CFU/Lung means the number of viable bacteria in the lung. Log CFU/Lung was determined as follows. The lung obtained from the mouse was homogenated to obtain a bacterial culture. The bacterial culture was appropriately diluted, applied to an agar plate medium, and cultured. Log CFU/Lung was determined on the basis of the number of developed colonies.

[2] = test system: M. catarrhalis (26 STRAINS); assay: Antibacterial activity against clinically isolated strains, MIC90; format: cell-based; settings: Moraxella catarrhalis, 26 clinically isolated strains
Method: (§3) The antibacterial activities in vitro of the compound D, garenoxacin, and levofloxacin against each clinically isolated strain of Streptococcus pneumoniae, Moraxella catarrhalis, and Haemophilus influenzae were measured in accordance with a CLSI microdilution method or a CLSI agar dilution method. A MIC90 value was the minimum concentration in which the growth of 90% strain of all the measured strains was inhibited.

[3] = test system: PCG-LOW SENSITIVE S. pneumoniae (22 STRAINS); assay: as above; format: cell-based; settings: Streptococcus pneumoniae, 22 clinically isolated strains
Method: as §3

[4] = test system: H. influenzaes (26 STRAINS); assay: as above; format: cell-based; settings: Haemophilus influenzae, 26 clinically isolated strains
Method: as §3

PSSP (26 STRAINS) = assay: as above; format: cell-based; settings: Streptococcus pneumoniae, 26 clinically isolated strains
Method: as §3

S. aureus MS5935 = assay: Antibacterial activity against quinolone-resistant strain in vitro, CLSI dilution; format: cell-based; settings: Staphylococcus aureus; S. aureus MS5935, PARENT STRAIN, gyrA None, grlA None
[5] = target: QUINOLONE RESISTANT Topoisomerase IV (S. aureus) (Staphylococcus aureus, UniProt P0C1U9); assay: Enzyme inhibitory activity, decatenation of kinetoplast DNA; format: biochemical
Method: (§4) Agents Chemother. 45: 3544-3547 (2001). […] The measurement was performed in the same manner as in Test Example 3. Similarly, the inhibitory activities of ciproxacin, levofloxacin, and garenoxacin were measured. The results were compared.

[6] = target: Topoisomerase IV (S. aureus) (Staphylococcus aureus, UniProt P0C1S7+P0C1U9); assay: as above; format: biochemical
Method: as §4

[7] = test system: S. aureus MS5935 gyrA mutant; assay: microbe, parasite or virus in culture; format: cell-based; settings: Staphylococcus aureus
S. pneumoniae CF9842 = assay: microbe, parasite or virus in culture; format: cell-based; settings: Streptococcus pneumoniae
E. coli ATCC25922 [8] = assay: Frequency of development of resistant bacteria; format: cell-based, Escherichia coli; settings: for FREQUENCY OF DEVELOPMENT OF RESISTANT BACTERIA (AVERAGE OF TWO MEASURED VALUES): about 70 hours
Method: as §1, §2

S. aureus MS5935 1st = assay: microbe, parasite or virus in culture; format: cell-based; settings: Staphylococcus aureus, MS59351ST
[9] = target: QUINOLONE RESISTANT DNA gyrase (quinolone-resistant S. aureus) (Staphylococcus aureus, UniProt P20831); assay: Enzyme inhibitory activity, supercoiling of relaxed pBR322; format: biochemical
Method: as §4

[10] = target: DNA gyrase derived from S. aureus (Staphylococcus aureus, UniProt P0A0K8+P20831); assay: as above; format: biochemical
Method: as §4

S. aureus MS5935 4th = assay: microbe, parasite or virus in culture; format: cell-based; settings: for MIC: Staphylococcus aureus, MS59354TH
E. coli ATCC25922 [11] = assay: microbe, parasite or virus in culture; format: cell-based; settings: Escherichia coli
S. pneumoniae SF9863 = assay: microbe, parasite or virus in culture; format: cell-based; settings: Streptococcus pneumoniae
S. aureus MS5935 3rd = assay: microbe, parasite or virus in culture; format: cell-based; settings: Staphylococcus aureus, MS59353RD
[12] = target: Topoisomerase IV (S. pneumoniae IID553) (Streptococcus pneumoniae serotype 4, UniProt P72525+Q59961); assay: Enzyme inhibitory activity, decatenation of kinetoplast DNA
[13] = S. pneumoniae ATCC49619, 4 × MIC
[14] = S. pneumoniae ATCC49619, 8 × MIC
[15] = S. pneumoniae ATCC49619, 16 × MIC

Compound | MIC (S. pneumoniae GF9821) [µg/mL] | MIC (S. pneumoniae IID553) [µg/mL] | FREQUENCY OF DEVELOPMENT OF RESISTANT BACTERIA (AVERAGE OF TWO MEASURED VALUES) (S. pneumoniae ATCC49619; [13]) | FREQUENCY OF DEVELOPMENT OF RESISTANT BACTERIA (AVERAGE OF TWO MEASURED VALUES) (S. pneumoniae ATCC49619; [14]) | FREQUENCY OF DEVELOPMENT OF RESISTANT BACTERIA (AVERAGE OF TWO MEASURED VALUES) (S. pneumoniae ATCC49619; [15]) | IC50 [1] [µM] | MIC90 [2] [µg/mL] | MIC90 [3] [µg/mL] | MIC90 [4] [µg/mL] | MIC90 (PSSP (26 STRAINS)) [µg/mL] | MIC (S. aureus MS5935) [µg/mL] | MIC [7] [µg/mL] | MIC (S. pneumoniae CF9842) [µg/mL] | FREQUENCY OF DEVELOPMENT OF RESISTANT BACTERIA (AVERAGE OF TWO MEASURED VALUES) (E. coli ATCC25922 [8]; E. coli ATCC25922, 4 × MIC) | FREQUENCY OF DEVELOPMENT OF RESISTANT BACTERIA (AVERAGE OF TWO MEASURED VALUES) (E. coli ATCC25922 [8]; E. coli ATCC25922, 8 × MIC) | FREQUENCY OF DEVELOPMENT OF RESISTANT BACTERIA (AVERAGE OF TWO MEASURED VALUES) (E. coli ATCC25922 [8]; E. coli ATCC25922, 16 × MIC) | MIC (S. aureus MS5935 1st) [µg/mL] | MIC (S. aureus MS5935 4th) [µg/mL] | MIC (E. coli ATCC25922 [11]) [µg/mL] | MIC (S. pneumoniae SF9863) [µg/mL] | further results
COc1c(N2C[C@H](CNC3CC3)[C@H](F)C2)c(F)cc2c(=O)c(C(=O)O)cn(CCF)c12.Cl [Compound D, 7-[(3S,4S)-3-{(cyclopropylamino)methyl}-4-fluoropyrrolidine-1-yl]-6-fluoro-1-(2-fluoroethyl)-8-methoxy-4-oxo-1,4-dihydroquinoline-3-carboxylic acid hydrochloride] | 0.125 | 0.06 | <1.1 × 10^−8 | <1.1 × 10^−8 | <1.1 × 10^−8 | 12.6 | 0.06 | 0.06 | 0.06 | 0.06 | 0.015 | 0.03 | 0.06 | <1.9 × 10^−9 | <1.9 × 10^−9 | <1.9 × 10^−9 | 0.03 | 2 | 0.06 | 0.06 | development of resistant bacteria (in words) (S. pneumoniae ATCC49619; S. pneumoniae ATCC49619, 4 to 16 × MIC): not observed; therapeutic effect, number of bacteria in the lung (S. pneumoniae KY-9; oral administration): excellent as compared with garenoxacin and levofloxacin; decrease in number of bacteria in the lung versus Vehicle (S. pneumoniae KY-9; subcutaneous, 6.3 mg and 25 mg/kg): significant dose-dependent decrease; difference in number of viable bacteria in the lung, compound D versus garenoxacin (S. pneumoniae KY-9; subcutaneous, 25 mg/kg groups): about 1,000 times; IC50 ([5]; read-out: IC50 VALUE, QUINOLONE RESISTANT Topoisomerase IV): 5.88 µM; IC50 [6]: 1.53 µM; development of resistant bacteria (in words) (E. coli ATCC25922 [8]; E. coli ATCC25922, 4 to 16 × MIC): not observed; IC50 ([9]; read-out: IC50 VALUE, QUINOLONE RESISTANT DNA gyrase, average of three or average ± SD): 35.7 µM; IC50 [10]: 3.57 µM; potency (action strength) relative to the other quinolone compounds (S. aureus MS5935 4th; 4th step quadruple mutant S. aureus, from MIC): ≥ 16 times; MIC (S. aureus MS5935 3rd): 0.5 µg/mL; IC50 [12]: 2.73 µM
C[C@H]1NCc2cc(-c3ccc4c(=O)c(C(=O)O)cn(C5CC5)c4c3OC(F)F)ccc21 [GRNX, garenoxacin] | 0.25 (≈ 0.586 µM) | 0.06 (≈ 0.141 µM) | <1.1 × 10^−8 | <1.1 × 10^−8 | <1.1 × 10^−8 | 84.4 | 0.015 (≈ 0.0352 µM) | 0.06 (≈ 0.141 µM) | 0.015 (≈ 0.0352 µM) | 0.06 (≈ 0.141 µM) | 0.015 (≈ 0.0352 µM) | 0.06 (≈ 0.141 µM) | 0.125 (≈ 0.293 µM) | <1.9 × 10^−9 | <1.9 × 10^−9 | <1.9 × 10^−9 | 0.03 (≈ 0.0704 µM) | 32 (≈ 75 µM) | 0.03 (≈ 0.0704 µM) | 0.25 (≈ 0.586 µM) | significant decrease in number of bacteria in the lung versus Vehicle (S. pneumoniae KY-9; subcutaneous, 6.3 mg/kg): not observed; significant decrease in number of bacteria in the lung versus Vehicle (S. pneumoniae KY-9; subcutaneous, 25 mg/kg): a significant decrease in number of bacteria in the lung was observed; IC50 ([5]; read-out: IC50 VALUE, QUINOLONE RESISTANT Topoisomerase IV (converted)): 63.3 µM; IC50 ([6]; S. aureus enzyme, read-out: IC50 VALUE, Topoisomerase IV (converted)): 4.46 µM; IC50 ([9]; average of three or average ± SD, read-out: IC50 VALUE, QUINOLONE RESISTANT DNA gyrase (converted)): 985 µM; IC50 ([10]; S. aureus enzyme, average of three or average ± SD, read-out: IC50 VALUE, DNA gyrase (converted)): 25.8 µM; MIC (S. aureus MS5935 3rd): 8 µg/mL (≈ 18.8 µM); IC50 [12]: 5.16 µM
